The structures appear in SMILES notation. Values joined by “and” are separate entries in the source; they are usually repeats but may differ in a detail not shown here. Identical values can stand only once. Where only a bound is given, the exact number is not on record here.

A short description of data set [1]: Destruction of DMSP by heating (GC-FID). Format: physicochemical. How it is done:
The concentration of DMSP in 1 ml-samples of heated or boiled 200 μM DMSP and in heated and untreated P. piscicida homogenates was measured using gas chromatography with flame ionization detection, as previously described.
Destruction of 200 μM DMSP in CB was assessed after heating the samples to either 80 or 100° C. for 15 min. At both temperatures, negligible (<2%) loss of DMSP was observed.
An alternative explanation for why heat reduced the chemoattractant quality of the homogenates is that heat acts indirectly through an intermediate to inactivate DMSP. This hypothesis predicts that the concentration of DMSP decreases when a homogenate is heated. The DMSP concentration in untreated and heated homogenates was measured. In untreated P. piscicida homogenates the mean concentration of DMSP was 8.21±1.2 μM. After the homogenate was heated, the concentration of DMSP fell below the level of detectability (<1 μM).

Data set [2] concerns Silicibacter sp. strain TM1040. Description: Quantitative capillary chemotaxis assay. Format: cell-based. As to conditions: for response factor (mean): pure compounds, FIG. 12, capillaries filled with 2 μM or 200 μM attractant; for mean concentration of bacteria in methionine-filled capillaries: starved cells. An excerpt:
The cells were pelleted by centrifugation at 4,000×g in a tabletop centrifuge (Centra-CL2; International Equipment Company), the supernatant was discarded, and the pellet was resuspended in chemotaxis buffer (CB) (15 g of ASW, 6 g of Tris-HCl per liter [pH 7.6]) to the same OD. Five hundred microliters of washed cells was placed in one of the wells of the Palleroni chamber, followed by a 1-μl capillary (Microcaps; Drummond) filled with a putative attractant diluted in CB. This process was repeated for each of the four wells in the chamber. A capillary filled with CB only was included in each experiment as a negative control. Depending on the experiment, capillaries remained in the chambers for 0.5 to 2 h, after which time they were removed, and the contents of each capillary were serially diluted in CB. Final dilutions were then spread on HIASW agar plates and incubated for 16 h at 30° C. The concentration of TM1040 in each capillary was derived by counting the CFU on each plate and multiplying by the appropriate dilution factor. […]

The test system of data set [3] is Silicibacter sp. strain TM1040. Description: Capillary assay: reduction in chemotaxis toward P. piscicida homogenates by externally supplied attractant. Format: cell-based. As to conditions: for % Reduction in CFU per capillary compared to the control / No. of bacteria per capillary (CFU · 10^4), attractant added to external buffer: 200 μM attractant in external buffer; for No. of bacteria per capillary (CFU · 10^4), attractant added to external buffer: SD in parentheses; for mean number of bacteria in the untreated capillaries: untreated homogenate, attractant supplied externally in the buffer. As to the method:
The capillary assay was also used to measure the reduction in chemotaxis through competition when a known attractant was supplied exogenously (i.e., outside the capillary). In this variation, the quantitative capillary method was used, but a known attractant was included in the CB used to suspend the washed cells. A capillary containing a mixture of potential chemoattractant molecules was then placed in the chamber and incubated as described earlier. At the completion of the assay, the percent reduction in chemotaxis was calculated using the following formula: % reduction=[1−(CFU ml^−1exogenous/CFU ml^−1control)]×(100).
Dinoflagellates and Rhodomonas sp. were grown to late exponential phase (ca. 10^5 to 10^6 cells per ml), and the cell density was measured using a Coulter Counter (model M/SZRII; Beckman Coulter). Dinoflagellates were harvested after starvation of the culture to remove Rhodomonas prey algae, which was confirmed by microscopy. The cell densities in P. piscicida and Rhodomonas cultures were normalized to 10^5 cells per ml, and each culture was then pelleted by centrifugation at 4,000×g and 4° C. for 10 min. The supernatant was removed, and the pellets were separately resuspended with either 1 ml of ice-cold distilled water or CB. The cells were homogenized by sonication (Sonic Dismembrator; Fisher), and cell disruption was assessed by microscopy. To examine the heat sensitivity of chemotaxis elicitors, an aliquot of each homogenate was heated to 80° C. for 15 min prior to the assay. All homogenates were then stored at −20° C. When required, the homogenates were thawed, held on ice, and used in the capillary assay as described.

Data set [4] deals with Silicibacter sp. strain TM1040. Briefly: Chemotaxis plate screening assay (change in motile colony morphology). For Change in morphology with carbon source Alanine: key: −: minus indicates no change compared to distilled water or no attractant controls; +: either one or two pluses indicates moderate to strong alteration in motile colony phenotype (respectively); ++: either one or two pluses indicates moderate to strong alteration in motile colony phenotype (respectively). For Change in morphology with carbon source Glucose: key: −: minus indicates no change compared to distilled water or no attractant controls; +: either one or two pluses indicates moderate to strong alteration in motile colony phenotype (respectively); ++: either one or two pluses indicates moderate to strong alteration in motile colony phenotype (respectively). For Change in morphology with carbon source Glycerol: key: −: minus indicates no change compared to distilled water or no attractant controls; +: either one or two pluses indicates moderate to strong alteration in motile colony phenotype (respectively); ++: either one or two pluses indicates moderate to strong alteration in motile colony phenotype (respectively). For Response: change in motile colony morphology of TM1040 in response to attractants, compared to the control: key: −: minus indicates no change compared to distilled water or no attractant controls; +: either one or two pluses indicates moderate to strong alteration in motile colony phenotype (respectively); ++: either one or two pluses indicates moderate to strong alteration in motile colony phenotype (respectively). It is filed as cell-based. As to conditions: for Response: change in motile colony morphology of TM1040 in response to attractants, compared to the control / chemotactic response of TM1040 in plate assay: BM glycerol motility agar; for Change in morphology with carbon source Alanine / Change in morphology with carbon source Glucose / Change in morphology with carbon source Glycerol / Change in morphology with carbon source Succinate: BM motility agar; for Change in morphology with carbon source Alanine: alanine as single carbon source; for Change in morphology with carbon source Glucose: glucose as single carbon source; for Change in morphology with carbon source Glycerol: glycerol as single carbon source; for Change in morphology with carbon source Succinate: succinate as single carbon source. How it is done:
Following 36 h of incubation, a putative attractant was placed approximately 5 cm from the site of inoculation (or 2.5 cm in front of the periphery of motile cells). Possible chemoattractant compounds were administered as either a sterile solid or concentrated stock solutions. The cells were further incubated for 16 h to allow for additional outward movement, at which time measurement of diameter, shape, and chemotaxis rings internal to the motile colony were made.
[…] Bacteria inoculated into the center of the agar consume nutrients and create a concentration gradient that increases outward from the point of inoculation. The bacteria sense the increasing gradient and swim outwards, seeking higher concentrations of nutrients, which is manifested as a symmetrical “motile” colony. If an attractant is placed at a short distance in front of the advancing motile colony, it forms a second gradient moving towards the oncoming cells that will affect the symmetry of the colony by reducing the net outward swimming of the bacteria.

The mark [5] stands for this setting: heated (80° C. for 15 min) P. piscicida homogenate.
[6] abbreviates: untreated P. piscicida homogenate.

Turning to `C[S+](C)CCC(=O)[O-]` [DMSP, Dimethylsulfoniopropionate], in data set [1] (200 μM DMSP in CB heated to either 80 or 100° C. for 15 min), the “loss of DMSP” value is given as below 2%. Also, in data set [1] (after the homogenate was heated, level of detectability), the “concentration of DMSP in P. piscicida homogenates” value is below 1 µM. Besides, the “mean concentration of DMSP in P. piscicida homogenates” value in data set [1] (untreated homogenate) worked out at 8.21 ± 1.2 µM. The “response factor (mean)” value in data set [2] is recorded as 8.2. In data set [3] (setting [5]), the “% Reduction in CFU per capillary compared to the control” value (from here on “% Reduction in CFU per capillary”) was 11% and 11.68%; the “No. of bacteria per capillary (CFU · 10^4), attractant added to external buffer” value (“No. of bacteria per capillary” for short) is 3.10 (±0.16) CFU · 10^4. Further, in data set [3] (setting [6]), the “% Reduction in CFU per capillary” value is 54% and 54.01%; the “No. of bacteria per capillary” value is listed as 3.33 (±0.15) CFU · 10^4. In data set [3], the “mean number of bacteria in the untreated capillaries” value (“mean number of bacteria” below) is given as 3.33×10^4 CFU per ml. In addition, in data set [4], the “Response: change in motile colony morphology of TM1040 in response to attractants, compared to the control” value is on record as “++”; the “chemotactic response of TM1040 in plate assay” value (“chemotactic response of TM1040” for short) is “marked deformation in the periphery of the motile colony”; the “Change in morphology with carbon source Alanine” value is “+”; the “Change in morphology with carbon source Glucose” value is listed as “−”. Moreover, in data set [4], the “Change in morphology with carbon source Glycerol” value is recorded as “++” and the “Change in morphology with carbon source Succinate” value is recorded as “+”.
For the molecule `NCCCC[C@H](N)C(=O)O` [lysine], the “response factor (mean)” value in data set [2] is “ca. 3.5”. In data set [4], the “Response: change in motile colony morphology of TM1040 in response to attractants, compared to the control” value is recorded as “+”; the “Change in morphology with carbon source Alanine” value is on record as “−”; the “Change in morphology with carbon source Glucose” value was “−”; the “Change in morphology with carbon source Glycerol” value is reported as “+”. For the same molecule, in data set [4], the “Change in morphology with carbon source Succinate” value is “−”.
As to `CSCC[C@H](N)C(=O)O` [methionine], the “response factor (mean)” value in data set [2] is 9.8. The “mean concentration of bacteria in methionine-filled capillaries” value is 5.3×10^7 CFU per ml in data set [2] (0.5 h, 200 μM); 1.8×10^8 CFU per ml in data set [2] (1 h, 200 μM); 2.4×10^8 CFU per ml in data set [2] (1.5 h, 200 μM); 2.4×10^8 CFU per ml in data set [2] (2 h, 200 μM). Moreover, the “maximum mean concentration of bacteria in methionine-filled capillaries” value in data set [2] (without starvation, peak at 1.5 h, 200 μM) is listed as 2.1×10^8 CFU per ml. Moreover, the “% Reduction in CFU per capillary” value in data set [3] (setting [5]) amounted to 48%; in data set [3] (heated (80° C. for 15 min) P. piscicida homogenate, listed as Methionine), 48.72%; in data set [3] (setting [6]), 58%; in data set [3] (untreated P. piscicida homogenate, listed as Methionine), 58.15%. Further, the “No. of bacteria per capillary” value in data set [3] (setting [5]) is reported as 1.80 (±0.11) CFU · 10^4; in data set [3] (setting [6]), 3.03 (±0.32) CFU · 10^4. Besides, the “mean number of bacteria” value in data set [3] is recorded as 3.03×10^4 CFU per ml. Moreover, the “Response: change in motile colony morphology of TM1040 in response to attractants, compared to the control” value in data set [4] is listed as “++”. In addition, in data set [4], the “chemotactic response of TM1040” value is reported as “significant effects on the periphery of the motile colony”.
With `CC(C)[C@H](N)C(=O)O` [valine], the “response factor (mean)” value in data set [2] is 6.1. Further, in data set [3] (setting [5]), the “% Reduction in CFU per capillary” value is 74% and the “No. of bacteria per capillary” value is listed as 0.91 (±0.24) CFU · 10^4. For the same molecule, in data set [3] (heated (80° C. for 15 min) P. piscicida homogenate, listed as Valine), the “% Reduction in CFU per capillary” value was determined as 74.07%. In addition, in data set [3] (setting [6]), the “% Reduction in CFU per capillary” value was 78% and the “No. of bacteria per capillary” value is listed as 1.53 (±0.15) CFU · 10^4. The “% Reduction in CFU per capillary” value in data set [3] (untreated P. piscicida homogenate, listed as Valine) was 78.87%. Also, the “mean number of bacteria” value in data set [3] was 1.53×10^4 CFU per ml. In data set [4], the “Response: change in motile colony morphology of TM1040 in response to attractants, compared to the control” value was “++”; the “chemotactic response of TM1040” value was “significant effects on the periphery of the motile colony”; the “Change in morphology with carbon source Alanine” value was “+”; the “Change in morphology with carbon source Glucose” value is listed as “−”. Further, in data set [4], the “Change in morphology with carbon source Glycerol” value is listed as “++” and the “Change in morphology with carbon source Succinate” value is recorded as “+”.

These data come from patent US20090142429A1, “SILICIBACTER SP. STRAIN USEFUL FOR GENETIC TRANSFORMATION OF MARINE ALGAE AND PRODUCTION OF ANTIBIOTIC AGENTS” (UNIVERSITY OF MARYLAND BIOTECHNOLOGY INSTITUTE, priority 2005, published 2009).
